Data from ChEMBL document CHEMBL1149959, “Synthesis of potent -D-glucocerebrosidase inhibitors: N-alkyl--valienamines” (Bioorg Med Chem Lett, 1996).

target: T1, Lysosomal acid glucosylceramidase (Mus musculus, UniProt P17439)
T1 sequence (P17439 whole entry): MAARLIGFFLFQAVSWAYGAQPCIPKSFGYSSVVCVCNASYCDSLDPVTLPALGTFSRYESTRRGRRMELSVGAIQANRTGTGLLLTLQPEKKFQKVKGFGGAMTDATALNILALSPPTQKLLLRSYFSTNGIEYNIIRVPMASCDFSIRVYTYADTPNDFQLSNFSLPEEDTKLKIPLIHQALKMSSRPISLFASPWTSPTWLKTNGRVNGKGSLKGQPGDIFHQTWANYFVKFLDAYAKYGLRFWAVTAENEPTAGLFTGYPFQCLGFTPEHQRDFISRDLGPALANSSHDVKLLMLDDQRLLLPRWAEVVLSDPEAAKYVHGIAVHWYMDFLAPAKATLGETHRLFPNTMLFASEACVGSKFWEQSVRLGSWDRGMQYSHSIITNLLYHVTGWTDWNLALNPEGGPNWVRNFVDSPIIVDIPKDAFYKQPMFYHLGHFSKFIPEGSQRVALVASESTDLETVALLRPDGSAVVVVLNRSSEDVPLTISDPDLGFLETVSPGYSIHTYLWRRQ

With N[C@H]1C=C(CO)C(O)[C@H](O)C1O (single isomer, unassigned) [VALIENAMINE] the IC50 was “Not Active”.

target: T1, Lysosomal acid glucosylceramidase; assay: Compound was tested for inhibitory activity against beta-glucocerebrosidase.

First: CCCCCCCCCCCCCCN[C@@H]1C=C(CO)[C@H](O)C(O)[C@@H]1O (some centres undefined)
Second: CCCCCCCCCCCCCCCCCCN[C@@H]1C=C(CO)[C@H](O)C(O)[C@@H]1O (some centres undefined)
The IC50 of the first is 2.5-fold lower: 0.12 µM for the first, 0.3 µM for the second. The first is the more potent here.

Compared with CCCCCCCCN[C@@H]1C=C(CO)[C@H](O)C(O)[C@@H]1O (some centres undefined), CCCCCCCCCCN[C@@H]1C=C(CO)[C@H](O)C(O)[C@@H]1O (some centres undefined) is 2.3-fold higher in IC50: 0.03 µM for the first, 0.07 µM for the second. The first is the more potent here.

Going from OC1C2O[C@H]2[C@@H](O)C(O)[C@@H]1O (some centres undefined) to CCCCN[C@@H]1C=C(CO)[C@H](O)C(O)[C@@H]1O (some centres undefined), the IC50 rises from 1.1 µM to 11 µM (10-fold). The first is the more potent here.

CCCCCCCCCCCCC/C=C/[C@@H](O)[C@H](CN[C@@H]1C=C(CO)[C@H](O)C(O)[C@@H]1O)NC(=O)CCCCCCCCCCCCCCC (some centres undefined) and CCCCCCN[C@@H]1C=C(CO)[C@H](O)C(O)[C@@H]1O (some centres undefined) are the same in IC50: 0.3 µM for the first, 0.3 µM for the second.
